{
  "source": "patent US20040156851A1",
  "about": "“HMGB1 combination therapies” (Critical Therapeutics, Inc., priority 2002, published 2004)",
  "molecules": {"B1": {"name": "A box: Human HMGB1 mutant containing only the A box, SEQ ID NO:21 (A box SEQ ID NO:22) (protein, listed as Homo sapiens)", "chain": "MGKGDPKKPTGKMSSYAFFVQTCREEHKKKHPDASVNFSEFSKKCSERWKTMSAKEKGKFEDMAKADKARYEREMKTYIPPKGET"}},
  "key": {"[1]": {"biological_target": "Recombinant full length human HMGB1 (wild type HMGB1) (human)", "assay": "cell-based or functional assay"}, "[2]": {"biological_target": "RAGE on RAW 264.7 cells (mouse (murine RAW 264.7 cells)) (UniProt Q62151)", "sequence (Q62151 23-402)": "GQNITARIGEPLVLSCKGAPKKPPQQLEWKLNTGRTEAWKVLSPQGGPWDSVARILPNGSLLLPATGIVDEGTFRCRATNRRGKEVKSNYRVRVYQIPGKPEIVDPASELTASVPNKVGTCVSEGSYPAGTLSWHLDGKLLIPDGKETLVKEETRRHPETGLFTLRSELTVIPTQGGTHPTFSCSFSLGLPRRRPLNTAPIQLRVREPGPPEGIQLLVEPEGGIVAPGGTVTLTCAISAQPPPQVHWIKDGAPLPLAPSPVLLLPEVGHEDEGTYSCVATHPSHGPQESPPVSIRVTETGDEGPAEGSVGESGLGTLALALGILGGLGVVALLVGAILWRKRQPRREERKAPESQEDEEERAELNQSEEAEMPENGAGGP", "assay": "cell-based or functional assay"}, "RAW 264.7 cells": {"system": "RAW 264.7 cells", "assay": "TNF release from RAW 264.7 cells stimulated with HMGB1, mutants or B box peptides (L929 cytotoxicity bioassay)", "format": "cell-based, murine", "conditions": "for TNF release by synthetic B box peptide fragments: synthetic peptide 10 μg/ml, 10 hours (FIG. 3)", "experimental": "Murine macrophage-like RAW 264.7 cells (American Type Culture Collection, Rockville, Md.) were cultured in RPMI 1640 medium (Life Technologies, Grand Island, N.Y.) supplemented with 10% fetal bovine serum (Gemini, Catabasas, Calif.), penicillin and streptomycin (Life Technologies) and were used at 90% confluence in serum-free Opti-MEM I medium (Life Technologies, Grand Island, N.Y.). […] Polymyxin B was not used in experiments of synthetic peptide studies.\nTNF release was measured by a standard murine fibroblast L929 (ATCC, American Type Culture Collection, Rockville, Md.) cytotoxicity bioassay (Bianchi et al., Journal of Experimental Medicine 183:927-936, 1996) with the minimum detectable concentration of 30 pg/ml. Recombinant mouse TNF was obtained from R&D system Inc., (Minneapolis, Minn.). Murine fibroblast L929 cells (ATCC) were cultured in DMEM (Life Technologies, Grand Island, N.Y.) supplemented with 10% fetal bovine serum (Gemini, Catabasas, Calif.), penicillin (50 units/ml) and streptomycin (50 μg/ml) (Life Technologies) in a humidified incubator with 5% CO2.\nThe effect of the mutants on TNF release from Murine macrophage-like RAW 264.7 cells (ATCC) was carried out as follows. RAW 264.7 cells were cultured in RPMI 1640 medium (Life Technologies, Grand Island, N.Y.) supplemented with 10% fetal bovine serum (Gemini, Catabasas, Calif.), penicillin and streptomycin (Life Technologies). Polymyxin (Sigma, St. Louis, Mo.) was added at 100 units/ml to suppress the activity of any contaminating LPS. Cells were incubated with 1 μg/ml of full length (wild-type) HMGB1 and each HMGB1 mutant protein in Opti-MEM I medium for 8 hours. Conditioned supernatants (containing TNF which had been released from the cells) were collected and TNF released from the cells was measured by a standard murine fibroblast L929 (ATCC) cytotoxicity bioassay (Bianchi et al., supra) with the minimum detectable concentration of 30 pg/ml. Recombinant mouse TNF was obtained from R & D Systems Inc., (Minneapolis, Minn.) and used as control in these experiments. Data in FIG. 1 are all presented as mean±SEM unless otherwise indicated. (N=6−10).\nTo further examine the effect of HMGB1 B box on cytokine production, varying amounts of HMGB1 B box were evaluated for the effects on TNF, IL-1B, and IL-6 production in murine macrophage-like RAW 264.7 cells. Conditioned media were harvested and measured for TNF, IL-1β and IL-6 levels. TNF levels were measured as described herein, and IL-1β and IL-6 levels were measured using the mouse IL-1β and IL-6 enzyme-linked immunosorbent assay (ELISA) kits (R&D System Inc., Minneapolis, Minn.) and N>5 for all experiments.\nThe kinetics of B box-induced TNF release were also examined. TNF release and TNF mRNA expression were measured in RAW 264.7 cells induced by B box polypeptide or GST tag polypeptide only (used as a control (vector)) (10 μg/ml) for 0 to 48 hours. Supernatants were analyzed for TNF protein levels by an L929 cytotoxicity assay (N=3-5) as described herein. For mRNA measurement, cells were plated in 100 mm plates and treated in Opti-MEM I medium containing B box polypeptide or the vector alone for 0, 4, 8, or 24 hours, as indicated in FIG. 2D. The vector only sample was assayed at the 4 hour time point. Cells were scraped off the plate and total RNA was isolated using the RNAzol B method in accordance with the manufacturer's instructions (Tel-Test “B”, Inc., Friendswood, Tex.). TNF (287 bp) was measured by RNase protection assay (Ambion, Austin, Tex.). Equal loading and the integrity of RNA was verified by ethidium bromide staining of the RNA sample on an agarose-formaldehyde gel. […] TNF mRNA expression was maximal at 4 hours and decreased at 8 and 24 hours. […] A similar study was carried out measuring TNF protein released from RAW 264.7 cells 0, 4, 8, 24, 32 or 48 hours after administration of B box or vector only (GST tag), using the L929 cytotoxicity assay described herein. […]"}, "[3]": {"system": "HMGB1 induced TNF release", "assay": "A box inhibition of HMGB1 induced TNF release from RAW 264.7 cells", "format": "cell-based, murine", "conditions": "co-addition with HMGB1, 16 hours, TNF ELISA (FIG. 4B)", "experimental": "Weak agonists are by definition antagonists. […] This study was carried out as follows. Sub-confluent RAW 264.7 cells in 24-well dishes were treated with HMGB1 (1 μg/ml) and 0, 5, 10, or 25 μg/ml of A box for 16 hours in Opti-MEM I medium in the presence of polymyxin B (100 units/ml). The TNF-stimulating activity (assayed using the L929 cytotoxicity assay described herein) in the sample receiving no A box was expressed as 100%, and the inhibition by A box was expressed as percent of HMGB1 alone. […] Data in FIG. 4A are presented as mean±SD (n=2-3 independent experiments).\nAntagonism of full length HMGB1 activity by HMGB1 A box or GST tag (vector control) was also determined by measuring TNF release from RAW 264.7 macrophage cultures stimulated by co-addition of A box with full length HMGB1. RAW 264.7 macrophage cells (ATCC) were seeded into 24-well tissue culture plates and used at 90% confluence. The cells were treated with HMGB1, and/or A boxes as indicated for 16 hours in Optimum I medium (Life Technologies, Grand Island, N.Y.) in the presence of polymyxin B (100 units/ml, Sigma, St. Louis, Mo.) and supernatants were collected for TNF measurement (mouse ELISA kit from R&D System Inc, Minneapolis, Minn.). TNF-inducing activity was expressed as a percentage of the activity achieved with HMGB1 alone. […]"}, "[4]": {"system": "Balb/c mice subjected to CLP", "assay": "Cecal ligation and puncture (CLP) sepsis, survival of Balb/c mice", "format": "in vivo", "experimental": "Cecal ligation and puncture (CLP) was performed as described previously (Fink and Heard, J. Surg. Res. 49:186-196, 1990; Wichmann et al., Crit. Care Med. 26:2078-2086, 1998; and Remick et al., Shock 4:89-95, 1995). Briefly, Balb/c mice were anesthetized with 75 mg/kg ketamine (Fort Dodge, Fort Dodge, Iowa) and 20 mg/kg of xylazine (Bohringer Ingelheim, St. Joseph, Mo.) intramuscularly. A midline incision was performed, and the cecum was isolated. A 6-0 prolene suture ligature was placed at a level 5.0 mm from the cecal tip away from the ileocecal valve.\nThe ligated cecal stump was then punctured once with a 22-gauge needle, without direct extrusion of stool. The cecum was then placed back into its normal intra-abdominal position. […] Mortality was recorded for up to 1 week after the procedure; survivors were followed for 2 weeks to ensure no late mortalities had occurred.\nTo determine whether the HMGB1 A box can inhibit the lethality of HMGB1 during sepsis, mice were subjected to cecal perforation and treated by administration of A box beginning 24 hours after the onset of sepsis. […] Survival was monitored twice daily for up to 2 weeks to ensure no late death occurred. […]\nPassive immunization of critically ill septic mice with anti-HMGB1 antibodies was also assessed. […] Survival was monitored for 2 weeks. […]"}},
  "data": [
    {"molecule": "HMGB1 Amino terminus+A box mutant (human HMGB1 A box polypeptide) (from UniProt A9RA84 1-85)", "values": [
      {"measurement": "inhibition of HMGB1 (1 µg/ml) induced TNF release from RAW 264.7 cells, L929 cytotoxicity assay", "setting": "[1]", "value": 7.5, "unit": "µg/mL"}
    ]},
    {"molecule": "Recombinant full length human HMGB1 (wild type HMGB1) (from UniProt A9RA84 1-215) (ligand)", "values": [
      {"measurement": "decrease of HMGB1 (1 µg/ml) induced TNF release from RAW 264.7 cells by anti-RAGE antibody (25 µg/ml)", "setting": "[2]", "value": 40, "unit": "%"}
    ]},
    {"molecule": "fkdpnapkrlpsafflfcse (FKDPNAPKRLPSAFFLFCSE; listed as Homo sapiens) [1-20-mer]", "values": [
      {"measurement": "TNF stimulating potency compared with full length B box and HMGB1", "setting": "RAW 264.7 cells; peptide 10 μg/ml vs B box 1 μg/ml, 10 hours", "value": "less potent than either the full length synthetic B box (1-74-mer), or full length HMGB1"},
      {"measurement": "TNF release by synthetic B box peptide fragments", "setting": "RAW 264.7 cells", "value": "TNF-stimulating activity was retained"}
    ]},
    {"molecule": "60-74: Synthetic peptide fragment containing amino acids 60-74 of the HMGB1 B box (SEQ ID NO:20) (AAKLKEKYEKDIAAY; listed as Homo sapiens)", "values": [
      {"measurement": "TNF release by synthetic B box peptide fragments", "setting": "RAW 264.7 cells", "value": "did not induce TNF release"}
    ]},
    {"molecule": "45-64: Synthetic peptide fragment containing amino acids 45-64 of the HMGB1 B box (SEQ ID NO:20) (WNNTAADDKQPYEKKAAKLK; listed as Homo sapiens)", "values": [
      {"measurement": "TNF release by synthetic B box peptide fragments", "setting": "RAW 264.7 cells", "value": "did not induce TNF release"}
    ]},
    {"molecule": "30-49: Synthetic peptide fragment containing amino acids 30-49 of the HMGB1 B box (SEQ ID NO:20) (PGLSIGDVAKKLGEMWNNTA; listed as Homo sapiens)", "values": [
      {"measurement": "TNF release by synthetic B box peptide fragments", "setting": "RAW 264.7 cells", "value": "did not induce TNF release"}
    ]},
    {"molecule": "16-25: Synthetic peptide fragment containing amino acids 16-25 of the HMGB1 B box (SEQ ID NO:20) (LFCSEYRPKI; listed as Homo sapiens)", "values": [
      {"measurement": "TNF release by synthetic B box peptide fragments", "setting": "RAW 264.7 cells", "value": "did not induce TNF release"}
    ]},
    {"molecule": "B1", "values": [
      {"measurement": "effect on TNF stimulating activity of full length HMGB1", "setting": "[3]", "value": "significantly attenuated the TNF stimulating activity of full length HMGB1"},
      {"measurement": "outcome of animals", "setting": "[4]; 60 μg/mouse", "value": "most died"},
      {"measurement": "clinical behaviour of animals", "setting": "[4]; 600 μg/mouse, vs vector controls or 60 μg", "value": "significantly more alert, active, and to resume feeding behavior"}
    ]}
  ]
}
